Measurements taken from the NIST ThermoML archive (doi:10.1021/je9010486).

Assay: cn = amount concentration of the nth substance listed, in mol/dm3
Conditions: 101 kPa, Liquid

OC[C@@H](O)[C@@H](O)[C@H](O)[C@@H](O)CO [D-sorbitol] + O
Conditions	mass density, 293.15 K [kg/m3]	mass density, 303.15 K [kg/m3]	mass density, 313.15 K [kg/m3]	mass density, 323.15 K [kg/m3]	viscosity, 293.15 K [mPa·s]	viscosity, 303.15 K [mPa·s]	viscosity, 313.15 K [mPa·s]	viscosity, 323.15 K [mPa·s]
c1 = 0.1	1004.76	1002.12	998.58	994.32	1.088	0.8619	0.6892	0.5711
c1 = 0.2	1011.23	1008.52	1004.89	1000.54	1.113	0.8842	0.7109	0.5983
c1 = 0.3	1017.64	1014.83	1011.14	1006.75	1.168	0.9329	0.7399	0.6199
c1 = 0.4	1024.07	1021.15	1017.37	1012.93	1.22	0.9794	0.7849	0.6596
c1 = 0.5	1029.89	1026.88	1023.01	1018.5	1.275	1.029	0.8127	0.6841
c1 = 0.6	1036.94	1033.82	1029.9	1025.33	1.33	1.079	0.8573	0.7037
c1 = 0.7	1043.32	1040.11	1036.08	1031.44	1.394	1.136	0.8885	0.7392
c1 = 0.8	1049.36	1046.04	1041.95	1037.25	1.466	1.202	0.931	0.7779
c1 = 0.9	1056.16	1052.72	1048.48	1043.79	1.531	1.26	0.9849	0.8178
c1 = 1	1062.52	1058.99	1054.72	1049.92	1.608	1.329	1.03	0.8541

OC[C@@H](O)[C@@H](O)CO [meso-1,2,3,4-butanetetrol] + O
Conditions	mass density, 293.15 K [kg/m3]	mass density, 303.15 K [kg/m3]	mass density, 313.15 K [kg/m3]	mass density, 323.15 K [kg/m3]	viscosity, 293.15 K [mPa·s]	viscosity, 303.15 K [mPa·s]	viscosity, 313.15 K [mPa·s]	viscosity, 323.15 K [mPa·s]
c1 = 0.1	1002.06	999.34	995.83	991.64	1.047	0.8541	0.6807	0.5663
c1 = 0.2	1005.36	1002.74	999.19	994.96	1.065	0.8706	0.7005	0.5849
c1 = 0.3	1009.37	1006.74	1003.09	998.81	1.088	0.8913	0.721	0.5986
c1 = 0.4	1012.65	1009.58	1006.3	1001.94	1.11	0.911	0.743	0.6171
c1 = 0.5	1016.16	1013.33	1009.63	1005.23	1.139	0.9366	0.7611	0.6351
c1 = 0.6	1019.38	1016.67	1012.43	1008.41	1.169	0.9634	0.7827	0.652
c1 = 0.7	1023.78	1020.8	1015.82	1012.27	1.213	1.002	0.8067	0.6734
c1 = 0.8	1026.82	1024.2	1019.15	1015.63	1.257	1.045	0.8339	0.6909
c1 = 0.9	1031.9	1027.8	1023.23	1019.38	1.306	1.087	0.861	0.7057
c1 = 1	1034.32	1031.18	1027.24	1022.64	1.338	1.137	0.8965	0.7251

OC[C@@H](O)[C@@H](O[C@H]1O[C@H](CO)[C@@H](O)[C@H](O)[C@H]1O)[C@H](O)[C@@H](O)CO [4-O-α-D-glucopyranosyl-D-glucitol] + O
Conditions	mass density, 293.15 K [kg/m3]	mass density, 303.15 K [kg/m3]	mass density, 313.15 K [kg/m3]	mass density, 323.15 K [kg/m3]	viscosity, 293.15 K [mPa·s]	viscosity, 303.15 K [mPa·s]	viscosity, 313.15 K [mPa·s]	viscosity, 323.15 K [mPa·s]
c1 = 0.1	1009.45	1007.32	1003.78	999.68	1.274	0.8869	0.6982	0.6083
c1 = 0.2	1018.37	1016.24	1012.7	1008.6	1.381	0.9747	0.7706	0.652
c1 = 0.3	1027.29	1025.16	1021.62	1017.52	1.513	1.104	0.8464	0.7175
c1 = 0.4	1036.21	1034.08	1030.54	1026.44	1.66	1.225	0.9455	0.7827
c1 = 0.5	1045.13	1043	1039.46	1035.36	1.848	1.361	1.06	0.8723
c1 = 0.6	1054.05	1051.92	1048.38	1044.28	2.009	1.536	1.177	0.9616
c1 = 0.7	1062.97	1060.84	1057.3	1053.2	2.173	1.684	1.301	1.061
c1 = 0.8	1071.89	1069.76	1066.22	1062.12	2.304	1.825	1.438	1.15
c1 = 0.9	1080.81	1078.68	1075.14	1071.04	2.49	1.947	1.591	1.242
c1 = 1	1089.73	1087.6	1084.06	1079.96	2.68	2.132	1.741	1.385

OC[C@@H](O)[C@H](O)[C@@H](O)CO [xylitol] + O
Conditions	mass density, 293.15 K [kg/m3]	mass density, 303.15 K [kg/m3]	mass density, 313.15 K [kg/m3]	mass density, 323.15 K [kg/m3]	viscosity, 293.15 K [mPa·s]	viscosity, 303.15 K [mPa·s]	viscosity, 313.15 K [mPa·s]	viscosity, 323.15 K [mPa·s]
c1 = 0.1	1003.31	1000.96	997.16	992.72	1.068	0.858	0.685	0.5687
c1 = 0.2	1008.5	1005.78	1002.18	997.77	1.089	0.8774	0.7057	0.5916
c1 = 0.3	1013.42	1010.64	1006.99	1002.55	1.128	0.9121	0.7305	0.6093
c1 = 0.4	1018.54	1015.65	1011.95	1007.51	1.165	0.9452	0.764	0.6384
c1 = 0.5	1023.6	1020.49	1016.87	1012.42	1.207	0.9829	0.7869	0.6596
c1 = 0.6	1028.66	1025.38	1021.78	1017.34	1.25	1.021	0.825	0.6779
c1 = 0.7	1033.72	1030.28	1026.7	1022.25	1.313	1.079	0.8476	0.7063
c1 = 0.8	1038.78	1035.17	1031.62	1027.17	1.362	1.123	0.8825	0.7344
c1 = 0.9	1043.84	1040.06	1036.54	1032.09	1.423	1.178	0.923	0.7618
c1 = 1	1048.9	1044.95	1041.45	1037	1.473	1.223	0.9632	0.7896

OC[C@@H](O)[C@@H](O)[C@H](O)[C@H](O)CO [mannitol] + O
Conditions	mass density, 293.15 K [kg/m3]	mass density, 303.15 K [kg/m3]	mass density, 313.15 K [kg/m3]	mass density, 323.15 K [kg/m3]	viscosity, 293.15 K [mPa·s]	viscosity, 303.15 K [mPa·s]	viscosity, 313.15 K [mPa·s]	viscosity, 323.15 K [mPa·s]
c1 = 0.1	1004.82	1002.13	998.28	994.21	1.096	0.8694	0.6961	0.5782
c1 = 0.2	1010.89	1008.14	1004.5	999.82	1.143	0.9398	0.7468	0.6062
c1 = 0.3	1016.96	1014.15	1010.72	1005.23	1.203	0.986	0.7918	0.6356
c1 = 0.4	1023.03	1020.16	1016.94	1011.02	1.285	1.036	0.8201	0.6706
c1 = 0.5	1029.1	1026.17	1023.16	1017.33	1.336	1.085	0.8642	0.7104
c1 = 0.6	1035.17	1032.18	1029.38	1024.45	1.4	1.142	0.8954	0.7458
c1 = 0.7	1041.24	1038.19	1035.6	1030.32	1.472	1.197	0.9383	0.7849
c1 = 0.8	1047.31	1044.2	1041.82	1036.78	1.553	1.253	0.9934	0.8456
